Measurements taken from patent US10493074B2, “Specific trifluoroethyl quinoline analogue for use in the treatment of Sjögren's syndrome” (UCB Biopharma SPRL, priority 2015, dated 2019).

Legend:
[1] = tested on: T and B cells in cannulated salivary glands; experiment: FACS analysis of lymphocyte profile in salivary glands, inducible murine model of ectopic lymphoid tissue formation (Sjögren's syndrome model); type: in vivo, mice (C57BL/6); settings: for number of T and B cells in cannulated salivary glands: day 15 post-cannulation, vs vehicle
Experimental: N-{(R)-1-[8-Chloro-2-(1-oxypyridin-3-yl)quinolin-3-yl]-2,2,2-trifluoroethyl}-pyrido[3,2-d]pyrimidin-4-ylamine [hereinafter referred to as “Compound (A)”] was investigated in vivo in an inducible model of ectopic lymphoneogenesis in murine salivary glands that mimics Sjögren's syndrome. The results obtained are depicted in the accompanying drawings, in which:
(§1) Compound (A) was assessed in the in vivo murine model of inducible ectopic lymphoid tissue formation described by M. Bombardieri et al. in J. Immunol., 2012, 189, 3767-3776, which is a recognised animal model of Sjögren's syndrome.
(§2) Briefly, wild type (C57BL/6) mice were given replication-defective adenovirus 5 (AdV5) (10^8 p.f.u.) via retrograde cannulation of submandibular gland excretory ducts and sacrificed at specific time points post-cannulation. Compound (A), or vehicle control, was administered by gavage daily both prophylactically and therapeutically, starting at either day 0 or day 3 post-cannulation respectively. In order to assess immune cell status in isolated murine salivary glands, flow cytometry on single cell suspensions and quantitative real time PCR were used to evaluate protein and mRNA expression in the samples.
Replication-defective AdV5-infused salivary glands from mice dosed with either Compound (A) or vehicle were isolated from culled mice at different time points. Glands were dissected and placed in RPMI-1640 (with 2% FCS) (1 mL) on ice. Once all salivary glands were collected, RPMI-1640 was removed and replaced with enzyme mix (RMPI with 2% FCS, 0.8 mg/mL Dispase, 0.2 mg/mL Collagenase P, and 0.1 mg/mL DNase I) (2 mL). Salivary glands were cut into small pieces and tubes were incubated at 37° C. in a water bath, with magnetic stirrers. After 20 minutes, salivary gland fragments were very gently pipetted, using a 1 mL pipette, to disrupt the tissue further and release most cells. The mixture was replaced in the water bath and large fragments were allowed to settle for 30 s, after which time the enzyme mix was removed. […] Cells were filtered through 70 μm nylon mesh and counted using a haemocytometer. […]

[2] = tested on: TLO (tertiary lymphoid organ) associated genes; experiment: Quantitative RT-PCR of TLO associated genes in salivary glands, inducible murine model of ectopic lymphoid tissue formation (Sjögren's syndrome model); type: in vivo, mice (C57BL/6)
Experimental: Quantitative RT-PCR analysis of mRNA transcripts coding for indicated genes, normalised to housekeeping gene. The relative expression values presented as RQ were calibrated with day 0 post-cannulation salivary gland values.
as §1, §2

[O-][n+]1cccc(-c2nc3c(Cl)cccc3cc2[C@@H](Nc2ncnc3cccnc23)C(F)(F)F)c1 [Compound (A), N-{(R)-1-[8-Chloro-2-(1-oxypyridin-3-yl)quinolin-3-yl]-2,2,2-trifluoroethyl}-pyrido[3,2-d]pyrimidin-4-ylamine]
disaggregation of the inflammatory foci and resolution of salivary gland inflammation ([1]; dosed either prophylactically or therapeutically, overall conclusion from the model): effective | number of T and B cells in cannulated salivary glands ([1]; treated prophylactically from day 0, by gavage daily, flow cytometry (FIG. 1)): significant decrease | number of T and B cells in cannulated salivary glands ([1]; treated therapeutically from day 3 post-cannulation, by gavage daily, flow cytometry (FIG. 2)): significant decrease | gene expression profile of TLO associated genes ([2]; treated prophylactically from day 0, day 15 post-cannulation, vs vehicle (FIGS. 3 & 4)): significantly inhibited | gene expression profile of TLO associated genes ([2]; treated therapeutically from day 3 post-cannulation, day 15 post-cannulation, vs vehicle (FIG. 4)): decrease was conserved
